Assay results as given in US20070270418A1, “Inhibitors of P38 and Methods of Using the Same” (priority 2003, published 2007).
Read-outs that look alike come from different tables or passages of the source. Blank lines part the entries; values can stand above or below the compound they belong to.

What was measured:
[1] = target: T1, p38α (Homo sapiens, UniProt Q16539); experiment: p38 MAP Kinase assay, ATF2 phosphorylation (ELISA); format: biochemical; conditions: 40 μM ATP
T1 construct: p38 MAP Kinases are recombinant human full-length proteins with an amino-terminal GST fusion; GST (N); purchased Upstate (Charlottesville, Va.); host or cells: E. coli
T1 sequence (Q16539 whole entry, the tested form may be a part): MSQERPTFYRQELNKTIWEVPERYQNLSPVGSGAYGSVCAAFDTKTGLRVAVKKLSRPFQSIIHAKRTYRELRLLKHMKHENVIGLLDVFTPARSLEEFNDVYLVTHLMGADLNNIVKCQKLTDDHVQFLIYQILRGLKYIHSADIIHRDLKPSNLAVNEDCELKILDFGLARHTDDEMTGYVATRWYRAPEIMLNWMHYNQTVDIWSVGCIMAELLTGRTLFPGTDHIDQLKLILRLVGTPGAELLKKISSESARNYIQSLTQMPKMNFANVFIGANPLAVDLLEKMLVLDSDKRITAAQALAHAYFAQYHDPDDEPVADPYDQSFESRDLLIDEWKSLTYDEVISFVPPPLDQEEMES
In short: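 ATF2 Thr69 phosphorylation was quantified by ELISA (HRP/TMB, 450 nm) after EDTA termination. Reactions: 6 ng GST-fused full-length human p38α, 15 min compound pre-incubation at room temperature, then 30 min at 37° C with 40 μM ATP and 1.25 μM GST-ATF2 (aa 19-96), pH 7.5 HEPES buffer.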

[2] = target: T2, p38β (Homo sapiens, UniProt Q15759); experiment: Kinase selectivity, ATF2 phosphorylation ELISA; format: biochemical
T2 construct: p38 MAP Kinases are recombinant human full-length proteins with an amino-terminal GST fusion; GST (N); purchased Upstate (Charlottesville, Va.); host or cells: E. coli
T2 sequence (Q15759 whole entry, the tested form may be a part): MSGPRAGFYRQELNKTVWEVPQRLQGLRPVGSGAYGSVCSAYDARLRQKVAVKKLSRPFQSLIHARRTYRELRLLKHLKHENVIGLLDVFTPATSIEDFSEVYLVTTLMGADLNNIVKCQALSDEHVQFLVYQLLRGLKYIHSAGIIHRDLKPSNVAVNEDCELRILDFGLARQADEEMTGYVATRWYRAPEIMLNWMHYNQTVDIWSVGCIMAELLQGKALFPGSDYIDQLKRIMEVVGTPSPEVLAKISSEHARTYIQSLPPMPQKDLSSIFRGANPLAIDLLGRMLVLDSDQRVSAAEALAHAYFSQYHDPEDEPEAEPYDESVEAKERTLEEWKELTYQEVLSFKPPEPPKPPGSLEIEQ
Method: All kinases and the substrate ATF2 are acquired from Upstate (Charlottesville, Va.). p38 MAP Kinases are recombinant human full-length proteins with an amino-terminal GST fusion, expressed in and purified from E. coli. ATF2 is a GST fusion protein containing amino acids 19-96 of human ATF2 expressed in E. coli. All proteins were aliquoted and stored at −80° C.
p38 MAP Kinase assays are performed using an assay buffer containing 25 mM HEPES, pH 7.5, 10 mM MgCl2, 2 mM DTT, 20 mM β-glycerophosphate, 0.1 mM Na3VO4, 40 μM ATP and 1.25 μM of ATF2, together with 6 ng of p38α protein, 12 ng p38β protein, 1.5 ng p38γ, or 0.4 ng JNK2α2. Compounds are serially diluted in DMSO and 2 μL of test compound at 25× final concentration is used. The vehicle control receives DMSO only. Test compounds are pre-incubated with 20 μl of enzyme in kinase buffer (25 mM HEPES, pH 7.5, 10 mM MgCl2, 2 mM DTT, 20 mM 3-glycerophosphate and 0.1 mM Na3VO4) at room temperature for 15 minutes. […] The reactions are incubated for 30 minutes at 37° C. and terminated by the addition of 18 μl of 200 mM EDTA. An ELISA method is used to measure the phosphorylation of ATF2 at Thr 69. High binding 96-well plates (Corning 3369) are coated with 50 μl of kinase reaction for 1 hour at 37° C. The coated plates are washed with 200 μl washing buffer (25 mM Tris HCl, pH 8.3, 192 mM glycine, 0.1% SDS and 0.05% Tween-20) three times. The plates are then washed three times with SuperBlock in TBS (Pierce, 37535). After blocking, plates are incubated with 50 μl of rabbit anti-phospho-ATF2 antibody (Cell Signaling, 9221 L, 1:500) for 30 minutes at 37° C. Plates are washed three times with washing buffer prior to incubation with 50 μl HRP-conjugated goat anti-rabbit antibody (Cell Signaling, 7074, 1:500) for 30 minutes at 37° C. Plates are then washed three times with washing buffer before incubation with 50 μl of Ultra TMB-ELISA (Pierce, 34028) for 8 minutes at room temperature. Finally, 50 μl of phosphoric acid (1 M) is added to stop reactions and plate absorbance is read at 450 nm on a SpectraMax 250 plate reader.
A selectivity panel is used to test the cross-reactivity of compounds of the invention with the β and γ isoforms of p38 MAP kinase, Src^p60 and JNK2α2. The p38β, p38γ, and JNK2α2 assays are described in Example 4. The Src^p60 assay measures the ability of compounds to inhibit Src^p60-catalyzed phosphorylation of a peptide substrate.

[3] = system: collagen-induced arthritis in rats; experiment: In vivo established type II collagen arthritis study; design: species or system Female Lewis rats; conditions: Rattus norvegicus, po, oral gavage bid, days 1-7 of arthritis
Method: Compounds are tested in the collagen-induced model of arthritis in rats. Female Lewis rats (0.16-0.2 kg) are injected subcutaneously at the base of the tail and two sites on the back on day 0 and 6 with 300 μl of Freund's Incomplete Adjuvant containing 2 mg/ml of Bovine Type II Collagen. On day 9 of the study, caliper measurements of both hind leg ankle joints are performed. This measurement is considered the normal, pre-disease measurement. When ankle swelling is clearly established in at least one hind paw (caliper measurement increase from 0.263 to 0.282 inches), rats are enrolled into the treatment phase of the study. This occurs on day 10 or 11 of the study and is considered to be day 1 of arthritis. Enrolled animals are randomized and administered vehicle control or compound (1, 3.3, 10, or 30 mg/kg, bid), unless otherwise indicated, or dexamethasone (0.0375 mg/kg, bid) via oral gavage on days 1-7 of arthritis (treatment days). Ankle diameters are measured on each day of treatment. Mean increases in ankle diameter for 7 lead compounds are shown below in FIGS. 3-9.
Following sacrifice on day 7, both hind paws are removed from each animal and weighed. Knees and ankles from all animals in all groups are preserved, decalcified in 5% formic acid and trimmed into two approximately equal longitudinal (ankles) or frontal (knees) halves, dehydrated, cleared, infiltrated, and embedded in paraffin. Blocks are sectioned and stained with Toluidine Blue.
Tissues are examined microscopically and scored for knee and ankle inflammation (cellular infiltration), pannus formation and infiltration, cartilage damage (loss of Toluidine staining and collagen disruption) and bone resorption. Scoring is on a scale from 0-5, where a score of 0 is normal and a score of 5 indicates severe damage or evidence of disease or both.

[4] = target: T3, Syk (Homo sapiens, UniProt P43405); experiment: Broad selectivity panel, 32P incorporation; format: biochemical; conditions: 40 μM ATP, read-out: Percent inhibition Syk; for inhibition at 0.1 µM: 0.1 μM compound; for inhibition at 1 µM: 1 μM compound
T3 construct: purchased Upstate (Charlottesville, Va.)
Method: (§1) Various compounds of the present invention are screened against a panel of 24 additional kinases (Upstate, Charlottesville, Va.). Compounds are tested 0.1 μM and 1 μM in reactions containing 40 μM ATP. Incorporation of radiolabeled phosphate (^32P) into each kinase substrate is measured in the presence and absence of test compound.

[5] = target: T4, InsR (Homo sapiens, UniProt P06213); experiment: Broad selectivity panel, 32P incorporation; format: biochemical; conditions: 40 μM ATP, read-out: Percent inhibition InsR; for inhibition at 0.1 µM: 0.1 μM compound; for inhibition at 1 µM: 1 μM compound
T4 construct: purchased Upstate (Charlottesville, Va.)
T4 sequence (P06213 28-1382, species assumed): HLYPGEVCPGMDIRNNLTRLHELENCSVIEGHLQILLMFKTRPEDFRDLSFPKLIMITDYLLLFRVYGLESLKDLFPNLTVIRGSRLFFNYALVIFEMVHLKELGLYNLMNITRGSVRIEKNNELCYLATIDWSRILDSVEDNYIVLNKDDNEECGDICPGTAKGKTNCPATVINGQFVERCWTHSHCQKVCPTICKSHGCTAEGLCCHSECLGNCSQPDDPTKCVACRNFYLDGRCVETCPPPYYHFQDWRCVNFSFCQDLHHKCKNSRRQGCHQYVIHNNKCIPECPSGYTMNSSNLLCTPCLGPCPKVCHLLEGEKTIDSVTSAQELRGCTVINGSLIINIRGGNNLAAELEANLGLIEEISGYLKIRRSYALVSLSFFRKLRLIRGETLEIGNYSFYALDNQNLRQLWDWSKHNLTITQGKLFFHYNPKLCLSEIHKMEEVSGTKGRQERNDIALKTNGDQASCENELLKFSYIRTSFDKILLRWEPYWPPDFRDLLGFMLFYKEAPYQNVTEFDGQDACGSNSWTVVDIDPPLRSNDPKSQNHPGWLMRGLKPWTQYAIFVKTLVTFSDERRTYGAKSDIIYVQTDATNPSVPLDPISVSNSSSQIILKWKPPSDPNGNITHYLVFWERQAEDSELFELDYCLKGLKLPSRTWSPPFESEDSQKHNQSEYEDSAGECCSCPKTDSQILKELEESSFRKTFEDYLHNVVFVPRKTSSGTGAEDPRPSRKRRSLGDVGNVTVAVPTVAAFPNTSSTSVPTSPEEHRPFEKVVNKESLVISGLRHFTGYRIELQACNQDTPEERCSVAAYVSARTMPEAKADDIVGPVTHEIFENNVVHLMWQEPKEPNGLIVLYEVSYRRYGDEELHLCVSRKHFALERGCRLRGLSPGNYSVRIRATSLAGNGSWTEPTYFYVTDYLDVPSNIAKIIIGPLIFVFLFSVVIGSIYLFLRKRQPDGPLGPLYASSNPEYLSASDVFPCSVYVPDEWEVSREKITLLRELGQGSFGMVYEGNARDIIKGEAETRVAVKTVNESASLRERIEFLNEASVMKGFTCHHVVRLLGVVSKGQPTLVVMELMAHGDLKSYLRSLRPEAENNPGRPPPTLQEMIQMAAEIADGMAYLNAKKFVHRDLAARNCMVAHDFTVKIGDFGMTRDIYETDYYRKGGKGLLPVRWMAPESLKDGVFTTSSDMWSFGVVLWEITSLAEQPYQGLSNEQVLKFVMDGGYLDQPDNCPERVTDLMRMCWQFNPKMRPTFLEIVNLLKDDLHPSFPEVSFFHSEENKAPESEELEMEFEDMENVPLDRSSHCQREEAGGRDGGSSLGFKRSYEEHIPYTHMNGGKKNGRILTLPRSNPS
Method: as §1

[6] = target: T5, Lck (Homo sapiens, UniProt P06239); experiment: Broad selectivity panel, 32P incorporation; format: biochemical; conditions: 40 μM ATP, read-out: Percent inhibition Lck; for inhibition at 0.1 µM: 0.1 μM compound; for inhibition at 1 µM: 1 μM compound
T5 construct: purchased Upstate (Charlottesville, Va.)
T5 sequence (P06239 whole entry, species assumed): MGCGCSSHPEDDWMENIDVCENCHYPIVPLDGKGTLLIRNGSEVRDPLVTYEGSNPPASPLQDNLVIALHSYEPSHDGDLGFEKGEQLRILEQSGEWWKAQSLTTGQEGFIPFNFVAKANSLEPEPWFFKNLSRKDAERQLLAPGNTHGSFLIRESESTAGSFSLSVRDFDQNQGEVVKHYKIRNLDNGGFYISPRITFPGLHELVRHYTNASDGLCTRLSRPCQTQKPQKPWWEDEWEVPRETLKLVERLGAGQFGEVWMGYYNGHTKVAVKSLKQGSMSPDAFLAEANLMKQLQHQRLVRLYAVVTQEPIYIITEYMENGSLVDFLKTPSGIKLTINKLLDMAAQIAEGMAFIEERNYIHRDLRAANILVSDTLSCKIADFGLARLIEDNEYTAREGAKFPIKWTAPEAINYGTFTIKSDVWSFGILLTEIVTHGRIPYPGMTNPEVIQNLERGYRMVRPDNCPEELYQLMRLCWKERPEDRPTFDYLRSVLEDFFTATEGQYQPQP
Method: as §1

[7] = first column so headed (c3), read-out: ED50 summed ankle histology
[8] = second column so headed (c4), read-out: ED50 summed ankle histology

Compound: CN1[C@@H]2CC[C@H]1C[C@@H](Nc1nccc(-c3c(-c4ccc(F)cc4)nc4occn34)n1)C2 [CCLXXXI]
IC50 [1]: 4.91 nM
IC50 [2]: 24.6 nM
ED50 [3, 7]: 0.93 mg/kg
ED50 ([3]; read-out: ED50 ankle diameter): 0.98 mg/kg
ED50 ([3]; read-out: ED50 paw weights): 0.94 mg/kg
ED50 [3, 8]: 0.2 mg/kg
inhibition at 0.1 µM [4]: 17%
inhibition at 1 µM [4]: 33%
inhibition at 0.1 µM [5]: -7%
inhibition at 1 µM [5]: 14%
inhibition at 0.1 µM [6]: 26%
inhibition at 1 µM [6]: 35%

Compound: CN(C)CC(C)(C)CNc1nccc(-c2c(-c3ccc(F)cc3)nc3occn23)n1 [CXIX]
IC50 [1]: 17 nM
IC50 [2]: 288 nM
ED50 [3, 7]: 2.64 mg/kg
ED50 ([3]; read-out: ED50 ankle diameter): 2.3 mg/kg
ED50 ([3]; read-out: ED50 paw weights): 3.75 mg/kg
ED50 [3, 8]: 1.19 mg/kg
inhibition at 0.1 µM [4]: 35%
inhibition at 1 µM [4]: 33%
inhibition at 0.1 µM [5]: 8%
inhibition at 1 µM [5]: 3%

Compound: Fc1ccc(-c2nc3occn3c2-c2ccnc(N[C@@H]3CN4CCC3CC4)n2)cc1 [LXXI]
IC50 [1]: 27.7 nM
IC50 [2]: 114 nM
inhibition at 0.1 µM [4]: -5%
inhibition at 1 µM [4]: 33%
inhibition at 0.1 µM [5]: -25%
inhibition at 1 µM [5]: 12%
inhibition at 0.1 µM [6]: 8%
inhibition at 1 µM [6]: 17%

Compound: Fc1ccc(-c2nc3occn3c2-c2ccnc(NC3CN4CCC3CC4)n2)cc1 (stereo not drawn) [LXXXIV]
IC50 [1]: 15 nM
IC50 [2]: 1290 nM
ED50 [3, 7]: 2.6 mg/kg
ED50 ([3]; read-out: ED50 ankle diameter): 1.9 mg/kg
ED50 ([3]; read-out: ED50 paw weights): 2 mg/kg
ED50 [3, 8]: 0.6 mg/kg

Compound: Fc1ccc(-c2nc3occn3c2-c2ccnc(N[C@H]3CN4CCC3CC4)n2)cc1 [LXXXVII]
IC50 [1]: 8.7 nM
IC50 [2]: 150 nM
selectivity over p38β as compared to p38α [2]: 17 fold
ED50 [3, 7]: 2.07 mg/kg
ED50 ([3]; read-out: ED50 ankle diameter): 1.29 mg/kg
ED50 ([3]; read-out: ED50 paw weights): 1.88 mg/kg
ED50 [3, 8]: 0.42 mg/kg
inhibition at 0.1 µM [4]: 17%
inhibition at 1 µM [4]: 23%
inhibition at 0.1 µM [5]: -8%
inhibition at 1 µM [5]: 8%
inhibition at 0.1 µM [6]: -15%
inhibition at 1 µM [6]: 18%

Second part, led by results:

IC50 [1]: 0.71 nM
IC50 [2]: 1.8 nM
inhibition at 0.1 µM [4]: 3%
inhibition at 1 µM [4]: 10%
inhibition at 0.1 µM [5]: 9%
inhibition at 1 µM [5]: 2%
inhibition at 0.1 µM [6]: 2%
inhibition at 1 µM [6]: -3%
Compound: CS(=O)(=O)N1CCC(Nc2nccc(-c3c(-c4ccc(F)cc4)nc4occn34)n2)CC1 [CCLXXIX]
ED50 [3, 7]: 4.29 mg/kg
ED50 ([3]; read-out: ED50 ankle diameter): 2.09 mg/kg
ED50 ([3]; read-out: ED50 paw weights): 2.57 mg/kg
ED50 [3, 8]: 0.72 mg/kg

IC50 [1]: 2.38 nM
IC50 [2]: 6.3 nM
inhibition at 0.1 µM [5]: -28%
inhibition at 1 µM [5]: -4%
inhibition at 0.1 µM [6]: 5%
inhibition at 1 µM [6]: 31%
Compound: CC(=O)N1CCC(Nc2nccc(-c3c(-c4ccc(F)cc4)nc4occn34)n2)CC1 [CCLXXVIII]
ED50 [3, 7]: 3.09 mg/kg
ED50 ([3]; read-out: ED50 ankle diameter): 2.04 mg/kg
ED50 ([3]; read-out: ED50 paw weights): 1.55 mg/kg
ED50 [3, 8]: 1.24 mg/kg

IC50 [1]: 13.1 nM
IC50 [2]: 95.4 nM
inhibition at 0.1 µM [4]: 5%
inhibition at 1 µM [4]: 40%
inhibition at 0.1 µM [6]: -3%
inhibition at 1 µM [6]: 27%
Compound: Fc1ccc(-c2nc3occn3c2-c2ccnc(NC3CCNCC3)n2)cc1 [CCLXXX]
ED50 [3, 7]: 7.6 mg/kg
ED50 ([3]; read-out: ED50 ankle diameter): 5.43 mg/kg
ED50 ([3]; read-out: ED50 paw weights): 3.51 mg/kg
ED50 [3, 8]: 1.04 mg/kg
